Test results reported in patent US12240857B2 (priority 2017, dated 2025).
Where two headings read alike, the source gives them in different places.

Key:
[1] = system: EBOV mucin-domain-deleted glycoprotein pseudotyped VSV; assay: microbe, parasite or virus in culture; assay type: cell-based, Zaire ebolavirus; settings: Zaire ebolavirus, Vero, read-out: EC50 EBOV
[2] = system: BDBV mucin-domain-deleted glycoprotein pseudotyped VSV; assay: microbe, parasite or virus in culture; assay type: cell-based, Bundibugyo ebolavirus; settings: Vesicular stomatitis virus, Vero, read-out: EC50 BDBV
in vitro = settings: African green monkey, CC50

CC1CCN(C[C@H](O)COCC23CC4CC(C2)CC(c2ccccc2)(C4)C3)CC1 [Example C10, (2S)-1-(4-methylpiperidin-1-yl)-3-[(3-phenyladamantan-1-yl)methoxy]propan-2-ol]
EC50 [1]: 190 nM | EC50 [2]: 170 nM | CC50 (in vitro): 3600 nM

CC1CCN(C[C@@H](O)COCC23CC4CC(C2)CC(c2ccccc2)(C4)C3)CC1 [Example C11, (2R)-1-(4-methylpiperidin-1-yl)-3-[(3-phenyladamantan-1-yl)methoxy]propan-2-ol]
EC50 [1]: 180 nM | EC50 [2]: 110 nM | CC50 (in vitro): 3600 nM

CC1CCN(C[C@H](O)COCCC23CC4CC(C2)CC(c2ccccc2)(C4)C3)CC1 [Example C12, (2S)-1-(4-methylpiperidin-1-yl)-3-[2-(3-phenyladamantan-1-yl)ethoxy]propan-2-ol]
EC50 [1]: 270 nM | EC50 [2]: 190 nM | CC50 (in vitro): 1200 nM

CC1CCN(C[C@@H](O)COCCC23CC4CC(C2)CC(c2ccccc2)(C4)C3)CC1 [Example C13, (2R)-1-(4-methylpiperidin-1-yl)-3-[2-(3-phenyladamantan-1-yl)ethoxy]propan-2-ol]
EC50 [1]: 170 nM | EC50 [2]: 110 nM | CC50 (in vitro): 3600 nM

O=C(NC1CCNCC1)c1ccc(NCC23CC4CC(C2)CC(c2ccccc2)(C4)C3)nc1 [Example C14, 6-{[(3-phenyladamantan-1-yl)methyl]amino}-N-(piperidin-4-yl)pyridine-3-carboxamide]
EC50 [1]: > 1000 nM | EC50 [2]: 1000 nM | CC50 (in vitro): 3900 nM

c1ccc(C23CC4CC(CC(CNc5ccc(CN6CCCCC6)cn5)(C4)C2)C3)cc1 [Example C15, N-[(3-phenyladamantan-1-yl)methyl]-5-(piperidin-1-ylmethyl)pyridin-2-amine]
EC50 [1]: > 1000 nM | EC50 [2]: 980 nM | CC50 (in vitro): 3900 nM

NCc1ccc(NCC23CC4CC(C2)CC(c2ccccc2)(C4)C3)nc1 [Example C16, 5-(aminomethyl)-N-[(3-phenyladamantan-1-yl)methyl]pyridin-2-amine]
EC50 [1]: 980 nM | EC50 [2]: 750 nM | CC50 (in vitro): 8000 nM

CC1CCN(C[C@H](O)COc2ccc(C34CC5CC(CC(c6ccccc6)(C5)C3)C4)cc2)CC1 [Example C18, (2S)-1-(4-methylpiperidin-1-yl)-3-[4-(3-phenyladamantan-1-yl)phenoxy]propan-2-ol]
EC50 [1]: 80 nM | EC50 [2]: 260 nM | CC50 (in vitro): 2700 nM

CCC12CC3CC(C1)CC(c1ccc(OC[C@@H](O)CN4CCC(C)CC4)cc1)(C3)C2 [Example C19, (S)-1-(4-(−3-ethyladamantan-1-yl)phenoxy)-3-(4-methylpiperidin-1-yl)propan-2-ol]
EC50 [1]: 110 nM | EC50 [2]: 200 nM | CC50 (in vitro): > 100000 nM

Cc1ccc(C23CC4CC(CC(CN5CCCCC5)(C4)C2)C3)cc1 [Example D1]
EC50 ([1]; 24 h): 1300 nM | EC50 ([2]; 24 h): 610 nM | CC50 (in vitro): > 10000 nM

COc1ccc(CNCCC23CC4CC(CC(C4)C2)C3)cc1 [Example D4, [2-(adamantan-1-yl)ethyl][(4-methoxyphenyl)methyl]amine]
EC50 ([1]; 24 h): 2190 nM | EC50 ([2]; 24 h): 2720 nM | CC50 (in vitro): > 10000 nM

CCOCCN1CCN(CC23CC4CC(CC(C4)C2)C3)CC1 [Example D5, 1-(adamantan-1-ylmethyl)-4-(2-ethoxyethyl)piperazine]
EC50 ([1]; 24 h): 4600 nM | EC50 ([2]; 24 h): 1800 nM | CC50 (in vitro): > 10000 nM

CC1CCN(CC(O)COCCC23CC4CC(CC(C4)C2)C3)CC1 (stereo not drawn) [Example D10, 1-[2-(adamantan-1-yl)ethoxy]-3-(4-methylpiperidin-1-yl) propan-2-ol]
EC50 ([1]; 24 h): 320 nM | EC50 ([2]; 24 h): 140 nM | CC50 (in vitro): 15500 nM

CC1CCCCN1CC(O)COCCC12CC3CC(CC(C3)C1)C2 (stereo not drawn) [Example D11, 1-[2-(adamantan-1-yl)ethoxy]-3-(2-methylpiperidin-1-yl)propan-2-ol]
EC50 ([1]; 24 h): 440 nM | EC50 ([2]; 24 h): 190 nM | CC50 (in vitro): 7500 nM

CCN(CC(O)COCCC12CC3CC(CC(C3)C1)C2)C1CCCCC1 (stereo not drawn) [Example D12, N-{3-[2-(adamantan-1-yl)ethoxy]-2-hydroxypropyl}-N-ethylcyclo hexanamine]
EC50 ([1]; 24 h): 610 nM | EC50 ([2]; 24 h): 490 nM | CC50 (in vitro): > 3000 nM

CC(C)(C)NCC(O)COCCC12CC3CC(CC(C3)C1)C2 (stereo not drawn) [Example D13, {3-[2-(adamantan-1-yl)ethoxy]-2-hydroxypropyl}(tert-butyl)amine]
EC50 ([1]; 24 h): 630 nM | EC50 ([2]; 24 h): 670 nM | CC50 (in vitro): > 10000 nM

OC(COCCC12CC3CC(CC(C3)C1)C2)CN1CCOCC1 (stereo not drawn) [Example D16, 1-[2-(adamantan-1-yl)ethoxy]-3-(morpholin-4-yl)propan-2-ol]
EC50 ([1]; 24 h): 3800 nM | EC50 ([2]; 24 h): 3200 nM | CC50 (in vitro): > 10000 nM

CC1CCN(C[C@H](O)COc2ccc(C34CC5CC(CC(C5)C3)C4)cc2)CC1 [Example D22, (2S)-1[4-(adamantan-1-yl)phenoxy]-3-(4-methylpiperidin-1-yl)propan-2-ol]
EC50 ([1]; 24 h): 52 nM | EC50 ([2]; 24 h): 85 nM | CC50 (in vitro): 8500 nM

CC1CCN(C[C@@H](O)COc2ccc(C34CC5CC(CC(C5)C3)C4)cc2)CC1 [Example D23, (2R)-1-[4-(adamantan-1-yl)phenoxy]-3-(4-methylpiperidin-1-yl)propan-2-ol]
EC50 ([1]; 24 h): 60 nM | EC50 ([2]; 24 h): 77 nM | CC50 (in vitro): 3900 nM

CCN1CCN(CC(O)COc2ccc(C34CC5CC(CC(C5)C3)C4)cc2)CC1 (stereo not drawn) [Example D25, 1-[4-(adamantan-1-yl)phenoxy]-3-(4-ethylpiperazin-1-yl)propan-2-ol]
EC50 ([1]; 24 h): 90 nM | EC50 ([2]; 24 h): 240 nM | CC50 (in vitro): 3100 nM

CN1CCN(C[C@H](O)COc2ccc(C34CC5CC(CC(C5)C3)C4)cc2)CC1 [Example D27]
EC50 ([1]; 24 h): 130 nM | EC50 ([2]; 24 h): 190 nM | CC50 (in vitro): 3500 nM

CN1CCN(CC(O)COc2ccc(C34CC5CC(CC(C5)C3)C4)cc2)CC1 (stereo not drawn) [Example D28, 1-[4-(adamantan-1-yl)phenoxy]-3-(4-methylpiperazin-1-yl)propan-2-ol]
EC50 ([1]; 24 h): 150 nM | EC50 ([2]; 24 h): 210 nM | CC50 (in vitro): 4200 nM

NCCOc1ccc(C23CC4CC(CC(C4)C2)C3)cc1 [Example D34, 1-[4-(2-aminoethoxy)phenyl] adamantane]
EC50 ([1]; 24 h): 430 nM | EC50 ([2]; 24 h): 1160 nM | CC50 (in vitro): 3700 nM

Nc1ccc(C23CC4CC(CC(C4)C2)C3)cc1 [Example D36, 4-(adamantan-1-yl)aniline]
EC50 ([1]; 24 h): 4200 nM | EC50 ([2]; 24 h): 6200 nM | CC50 (in vitro): > 10000 nM

CC12CC3CC(C)(C1)CC(c1ccc(OC[C@@H](O)CN4CCCCC4)cc1)(C3)C2 [Example D39, (2S)-1-[4-(3,5-dimethyladamantan-1-yl)phenoxy]-3-(piperidin-1-yl) propan-2-ol]
EC50 ([1]; 24 h): 120 nM | EC50 ([2]; 24 h): 250 nM | CC50 (in vitro): 3200 nM

CC1CCN(C[C@H](O)COc2ccc(C34CC5CC(C)(CC(C)(C5)C3)C4)cc2)CC1 [Example D40, (2S)-1-[4-(3,5-dimethyladamantan-1-yl)phenoxy]-3-(4-methylpiperidin-1-yl)propan-2-ol]
EC50 ([1]; 24 h): 190 nM | EC50 ([2]; 24 h): 460 nM | CC50 (in vitro): 2500 nM

O=C(NCCC12CC3CC(CC(C3)C1)C2)c1ccc(CN2CCOCC2)cc1 [Example D41, N-[2-(adamantan-1-yl)ethyl]-4-(morpholin-4-ylmethyl)benzamide]
EC50 ([1]; 24 h): 2300 nM | EC50 ([2]; 24 h): 9700 nM | CC50 (in vitro): > 3000 nM

CC(NC(=O)Cn1ccc(C(F)(F)F)n1)C12CC3CC(CC(C3)C1)C2 (stereo not drawn) [Example D44, N[1-(adamantan-1-yl)ethyl]-2-[3-(trifluoromethyl)-1H-pyrazol-1-yl] acetamide]
EC50 ([1]; 24 h): 5800 nM | EC50 ([2]; 24 h): 2700 nM | CC50 (in vitro): > 10000 nM

CC(NC(=O)NCC(C)(C)N1CCOCC1)C12CC3CC(CC(C3)C1)C2 (stereo not drawn) [Example D45, 1-[1-(adamantan-1-yl)ethyl]-3-[2-methyl-2-(morpholin-4-yl)propyl]urea]
EC50 ([1]; 24 h): 6500 nM | EC50 ([2]; 24 h): 4600 nM | CC50 (in vitro): > 10000 nM

CN(C)C1CCCN(C(=O)NCC23CC4CC(CC(C4)C2)C3)C1 (stereo not drawn) [Example D46, N-(adamantan-1-ylmethyl)-3-(dimethylamino)piperidine-1-carboxamide]
EC50 ([1]; 24 h): 6700 nM | EC50 ([2]; 24 h): 4300 nM | CC50 (in vitro): > 10000 nM

CC(NC(=O)Cn1nnc(-c2ccco2)n1)C12CC3CC(CC(C3)C1)C2 (stereo not drawn) [Example D47, N-[1-(adamantan-1-yl)ethyl]-2-[5-(furan-2-yl)-2H-1,2,3,4-tetrazol-2-yl]acetamide]
EC50 ([1]; 24 h): 9300 nM | EC50 ([2]; 24 h): 5400 nM | CC50 (in vitro): > 10000 nM

O=C(NC1CCNCC1)NC12CC3CC(C1)CC(c1ccccc1)(C3)C2 [Example E1, 3-(3-phenyladamantan-1-yl)-1-(piperidin-4-yl)urea]
EC50 [1]: > 1000 nM | EC50 [2]: 770 nM | CC50 (in vitro): 18300 nM

N[C@H]1CC[C@H](NC(=O)NC23CC4CC(C2)CC(c2ccccc2)(C4)C3)CC1 [Example E2, 1-(4-aminocyclohexyl)-3-(3-phenyladamantan-1-yl)urea]
EC50 [1]: 870 nM | EC50 [2]: 610 nM | CC50 (in vitro): 12600 nM

O=C(NC12CC3CC(C1)CC(c1ccccc1)(C3)C2)C1CCNCC1 [Example E3, N-(3-phenyladamantan-1-yl)piperidine-4-carboxamide]
EC50 [1]: > 1000 nM | EC50 [2]: 270 nM | CC50 (in vitro): 36300 nM

O=C(CC1CCNCC1)NC12CC3CC(C1)CC(c1ccccc1)(C3)C2 [Example E4, N-(3-phenyladamantan-1-yl)-2-(piperidin-4-yl)acetamide]
EC50 [1]: 1080 nM | EC50 [2]: 790 nM | CC50 (in vitro): 23100 nM

N[C@H]1CC[C@H](C(=O)NC23CC4CC(C2)CC(c2ccccc2)(C4)C3)CC1 [Example E5, trans-4-amino-N-(3-phenyladamantan-1-yl)cyclohexane-1-carboxamide]
EC50 [1]: 680 nM | EC50 [2]: 230 nM | CC50 (in vitro): 13300 nM

O=C(NCC12CC3CC(C1)CC(c1ccccc1)(C3)C2)C1CCNCC1 [Example E6, N-[(3-phenyladamantan-1-yl)methyl]piperidine-4-carboxamide]
EC50 [1]: 710 nM | EC50 [2]: 200 nM | CC50 (in vitro): 11900 nM
